Measurements published in US20120316122A1, “PHARMACEUTICAL COMPOSITIONS FOR COMBATING THROMBOTIC DISEASES AND THEIR PREPARATION AND USES” (INSTITUTE OF RADIATION MEDICINE, ACADEMY OF MILITARY …, priority 2009, published 2012).
“Also recorded” adds a separate entry of the source.

Tests used:
[1] = system: platelet aggregation induced by ADP; assay: ADP-induced maximum platelet aggregation rate after gastric administration (Example 1); assay type: in vivo, Wistar rats; settings: 40 mg/Kg gastric once per day 7 days; blood 1 h after last dose; ADP 20 μM
Method: Wistar rats, after 1 h of administration on the 7th day, were anesthetized by intraperitoneal injection of pentobarbital sodium (40-60 mg/kg), blood samples were collected from hearts, anti-coagulated with 3.8% sodium citrate (volume ratio: 1:9). Centrifugation was performed under 800 rpm and room temperature for 10 min to separate platelet-rich plasmas (PRP), then centrifugation was performed again under 3000 rpm and room temperature for 20 min to separate platelet-poor plasmas (PPP). Counting was performed by using F-820 blood cell counter, and PRP was adjusted with PPP to have a concentration of 3.0×10^11/L.
Chronolog platelet aggregation analyzer test: Platelet suspension was adjusted with plasma to have a concentration of 3.0×10^11/L, the platelet to aggregation analyzer was turned on and pre-warmed for 30 min, and PPP was used as a blank control to adjust transmittance to be 100%. 450 μL of platelet suspension were taken, stirred with a stir bar and pre-warmed at 37° C. for 3 min, and separately added with inducing agent (50 μL) ADP agent (final concentration: 20 μM), then 5 min diagram was recorded, and aggregation rates at 1 min, 3 min and 5 min and the maximum aggregation rates were read.
Blood samples were collected from heart of anaesthetized mice after 1 h of the last gastric administration of timosaponins, and analyzed to determine the rates of platelet aggregation induced by ADP (20 μM) after administration.

[2] = system: artery-vein bypass thrombosis; assay: Artery-vein bypass thrombosis (Example 1); assay type: in vivo, Wistar rats; settings: 40 mg/Kg gastric once per day 7 days; bypass 15 min
Method: The pipe was taken down after 15 min, thrombus was taken out, rolled on a wet filter paper, residual blood was removed, placed on a parchment paper and weighed to obtained its wet weight. Then, it was placed in a drying oven and dried at 60° C. for 1 h to reach a constant weight, cooled and weighed to obtain the dry weight of thrombus.

caudal vein bleeding = assay: Caudal vein bleeding time in mice; settings: 40 mg/Kg gastric twice per day 5 days, test 1 h after dose on 6th day
Method: Mice were randomly divided into 7 groups: control group, aspirin group (ASP,40 mg/Kg), BII group (40 mg/Kg), AIII group (40 mg/Kg), 1:1 group (weight ratio of AIII to BII, 40 mg/Kg), 1:3 group (weight ratio of AIII to BII, 40 mg/Kg), 3:1 group (weight ratio of AIII to BII, 40 mg/Kg). Continuous gastric administration was performed for 5 days, twice per day, and the experiments were conducted after 1 h of the administration on the 6th day. The control group was administered with physiological saline of the same volume. All drug ratios were AIII to BII.
Mice were anesthetized with pentobarbital sodium (40-60 mg/kg), placed on a worm and comfortable pad, a tail tip was cut at a place where the tail of mice had to a diameter of 2.25-2.5 mm, and immediately placed in PBS (37° C.), timing started. Hemostatic time and re-bleeding time within 10 min were observed, and the bleeding volume of mice was presumed by hemoglobin volume.

platelet aggregation = assay: In vitro activity screening: platelet aggregation; assay type: cell-based
[3] = system: human platelet aggregation; settings: single compounds; cited from earlier work
blood coagulation [4] = settings: single compounds; cited from earlier work
[5] = system: thrombotic agent consisting of collagen and adrenalin; assay: Lethal time in mice by caudal vein injection of collagen; assay type: in vivo, Kunming mice; settings: 40 mg/Kg gastric twice per day 5 days, test 1 h after dose on 6th day; observed within 10 min
Method: Mice were fixed on mice-fixed frame, and thrombotic agent (100 μg/mouse) consisting of collagen (0.5 mg/kg) and adrenalin (60 ug/kg) were administered by caudal vein injection. The symptoms, symptom occurrence time, and the lethal time in mice were observed within 10 min, and mice […] after 10 min were deemed as survival.

[6] = system: jugular artery-vein bypass thrombosis; assay: Artery-vein bypass thrombosis in rats (Example 3); assay type: in vivo, Wistar rats; settings: aspirin 40 mg/kg gastric once per day 7 days; bypass 20 min
Method: Then, it was placed in a drying oven and dried at 60° C. for 1 h to reach a constant weight, cooled and weighed to obtain the dry weight of thrombus. […] The aspirin positive control group gave thrombus dry and wet weights slightly higher than those of the large dose group, and had significant difference from the control group.

[7] = system: ADP-induced platelet aggregation; assay: ADP-induced platelet aggregation rate in rats after gastric administration (Example 3); assay type: in vivo, Wistar rats; settings: aspirin 40 mg/kg gastric once per day 7 days; ADP 20 μM; in %
Method: Wistar rats were randomly divided into 5 groups, i.e., blank control group, aspirin 40 mg/kg group, the present pharmaceutical composition 10 mg/kg, 20 mg/kg and 40 mg/kg groups, the animals of the groups were subjected to continuous gastric administration for 7 days, once per day, dose volume was 10 mL/kg, operation was conducted after 1 h of administration on the 7th day, and the blank control was administered with distilled water of the same volume. […]
Chronolog platelet aggregation analyzer test: Platelet suspension was adjusted with plasma to have a concentration of 3.0×10^11/L, the platelet aggregation analyzer was turned on, and PPP was used as a blank control to adjust transmittance to be 100%. 450 μL of platelet suspension were taken, stirred with a stir bar and pre-warmed at 37° C. for 3 min, and separately added with inducing agent (50 μL) ADP agent (final concentration: 20 μM), then 5 min diagram was recorded, and aggregation rates at 1 min, 3 min and 5 min and the maximum aggregation rates were read.
The administration method of the present pharmaceutical composition and the grouping method were identical to that of the third part, blood samples were collected from hearts of rats on the 7th day after administration, and the ADP-induced platelet aggregation and bleeding/coagulation time (PT, TT and APTT) of the same batch were determined. […]

blood coagulation [8] = assay: Blood coagulation parameters APTT, PT and TT in rats; assay type: in vivo, Wistar rats; settings: aspirin group (40 mg/kg) gastric once per day 7 days
Method: Wistar rats were randomly divided into 5 groups, i.e., blank control group, aspirin 40 mg/kg group, the present pharmaceutical composition 10 mg/kg, 20 mg/kg and 40 mg/kg groups, the animals of the groups were subjected to continuous gastric administration for 7 days, once per day, dose volume was 10 mL/kg, operation was conducted after 1 h of administration on the 7th day, and the blank control was administered with distilled water of the same volume.
Blood samples were collected, plasmas were separated, and the operation was conducted according to the specification of kits.
The administration method of the present pharmaceutical composition and the grouping method were identical to that of the third part, blood samples were collected from hearts of rats on the 7th day after administration, and the ADP-induced platelet aggregation and bleeding/coagulation time (PT, TT and APTT) of the same batch were determined. […] The aspirin group gave a platelet aggregation rate lower than that of the control group, to but had no significant difference.

blood vessels = assay: In vitro activity screening: expanding blood vessels
[9] = system: rats with cerebral ischemia; settings: rat, in vivo; cited from earlier work

Compound: C[C@H]1CC[C@@]2(OC1)O[C@H]1C[C@H]3[C@@H]4CC[C@@H]5C[C@@H](O[C@@H]6O[C@H](CO)[C@H](O)[C@H](O)[C@H]6O[C@@H]6O[C@H](CO)[C@@H](O)[C@H](O)[C@H]6O)CC[C@]5(C)[C@H]4CC[C@]3(C)[C@H]1[C@@H]2C [AIII, timosaponin AIII]
- Maximum aggregation rate (%) [1]: 39.8 ± 5.0 %
- Thrombus dry weight [2]: 24.4 ± 6.30 mg
- Thrombus wet weight [2]: 64.29 ± 22.58 mg
- Bleeding volume (caudal vein bleeding): 21.3 ± 29.6 µL
- Hemostatic time (s) (caudal vein bleeding; cut-off 600 s): 396.6 ± 208.9^★★★ s
- inhibition of platelet aggregation in vitro (platelet aggregation): significantly inhibit; also recorded: significant inhibitive effect
- activity against human platelet aggregation [3]: significant activity
- extending blood coagulation time (blood coagulation [4]): significant activity

Compound: CC(=O)Oc1ccccc1C(=O)O [ASP, Aspirin]
- Maximum aggregation rate (%) [1]: 40.8 ± 7.6 %
- Thrombus dry weight [2]: 25.5 ± 7.37 mg
- Thrombus wet weight [2]: 79.74 ± 18.95 mg
- Bleeding volume (caudal vein bleeding): 13.5 ± 13.8 µL
- Hemostatic time (s) (caudal vein bleeding; cut-off 600 s): 277.4 ± 188.5^★★★ s
- Hemostatic time (caudal vein bleeding; cut-off 600 s, listed as aspirin): 277.4 ± 188.5 s
- Lethal time (s) [5]: 244.6 ± 195.3 ^★ s
- Thrombus weight (mg) Dry weight [6]: 26.7 ± 6.4 mg
- Thrombus weight (mg) Wet weight [6]: 79.7 ± 19.0 mg
- PLT maximum aggregation rate [7]: 49.1 ± 4.8
- Coagulation time (s) APTT (blood coagulation [8]): 17.50 ± 2.37 s
- Coagulation time (s) PT (blood coagulation [8]): 16.49 ± 2.08 s
- Coagulation time (s) TT (blood coagulation [8]): 28.98 ± 0.97 s

Compound: C[C@@H](CC[C@@]1(O)O[C@H]2C[C@H]3[C@@H]4CC[C@@H]5C[C@@H](O[C@@H]6O[C@H](CO)[C@H](O)[C@H](O)[C@H]6O[C@@H]6O[C@H](CO)[C@@H](O)[C@H](O)[C@H]6O)CC[C@]5(C)[C@H]4CC[C@]3(C)[C@H]2[C@@H]1C)CO[C@@H]1O[C@H](CO)[C@@H](O)[C@H](O)[C@H]1O [BII, timosaponin BII]
- Maximum aggregation rate (%) [1]: 50.8 ± 6.7%
- Thrombus dry weight [2]: 28.6 ± 7.82 mg
- Thrombus wet weight [2]: 90.39 ± 29.59 mg
- Bleeding volume (caudal vein bleeding): 10.7 ± 9.8 µL
- Hemostatic time (s) (caudal vein bleeding; cut-off 600 s): 325.1 ± 200.6^★★★ s
- inhibition of platelet aggregation in vitro (platelet aggregation): could not inhibit
- expanding blood vessels (blood vessels): could expand blood vessels; also recorded: significant effect of expanding blood vessels
- activity against human platelet aggregation [3]: significant activity
- extending blood coagulation time (blood coagulation [4]): significant activity
- blood rheology [9]: significantly improve
- cerebral edema [9]: alleviate
- cerebral infarction area [9]: reduce
- nervous symptoms of rats with cerebral ischemia [9]: significantly improve

Compound: CC1=C(CC[C@H](C)CO[C@@H]2O[C@H](CO)[C@@H](O)[C@H](O)[C@H]2O)O[C@H]2C[C@H]3[C@@H]4CC[C@@H]5C[C@@H](O[C@@H]6O[C@H](CO)[C@H](O)[C@H](O)[C@H]6O[C@@H]6O[C@H](CO)[C@@H](O)[C@H](O)[C@H]6O)CC[C@]5(C)[C@H]4CC[C@]3(C)[C@@H]12 [BIII]
- activity against human platelet aggregation [3]: significant activity
- extending blood coagulation time (blood coagulation [4]): significant activity

Compound: CO[C@]1(CC[C@H](C)CO[C@@H]2O[C@H](CO)[C@@H](O)[C@H](O)[C@H]2O)O[C@H]2C[C@H]3[C@@H]4CC[C@@H]5C[C@@H](O[C@@H]6O[C@H](CO)[C@H](O)[C@H](O)[C@H]6O[C@@H]6O[C@H](CO)[C@@H](O)[C@H](O)[C@H]6O)CC[C@]5(C)[C@H]4CC[C@]3(C)[C@H]2[C@@H]1C [BI]
- activity against human platelet aggregation [3]: significant activity
- extending blood coagulation time (blood coagulation [4]): significant activity

Compound: timosaponins Ia
- activity against human platelet aggregation [3]: significant activity
- extending blood coagulation time (blood coagulation [4]): significant activity
